Measurements from the supplement of paper PMC4862054.

Experiments:
Settings in all cases: incubation time: 72 h
CAL-85-1 = experiment: normalised viability (% of control), CellTiter-Blue; higher = more viable cells (about 100 = DMSO control)
Method in brief: (§1)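 After 72 h on compound-loaded 384-well plates, breast cancer cell lines received 2.5 µl CellTiter-Blue reagent for 2 h at 37 °C. Fluorescence at 560/590 nm was scaled per plate so that vehicle was 100 and a positive kill control was 0. The value stands for normalised viability at a single listed concentration of the series.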

SK-BR-3 = experiment: as above
Method in brief: as §1

MDA-MB-436 [1] = experiment: as above
Method in brief: as §1

CAL-51 [2] = experiment: as above
Method in brief: as §1

HDQ-P1 = experiment: as above
Method in brief: as §1

CAL-120 [3] = experiment: as above
Method in brief: as §1

Hs578T [4] = experiment: as above
Method in brief: as §1

BT-549 [5] = experiment: as above
Method in brief: as §1

CAL-148 = experiment: as above
Method in brief: as §1

MDA-MB-453 [6] = experiment: as above
Method in brief: as §1

BT-474 = experiment: as above
Method in brief: as §1

MDA-MB-231 [7] = experiment: as above
Method in brief: as §1

HCC1599 [8] = experiment: as above
Method in brief: as §1

DU-4475 = experiment: as above
Method in brief: as §1

MDA-MB-468 = experiment: as above
Method in brief: as §1

MFM-223 [9] = experiment: as above
Method in brief: as §1

HCC1937 [10] = experiment: as above
Method in brief: as §1

HCC1143 = experiment: as above
Method in brief: as §1

MDA-MB-436 [11] = experiment: normalised viability (% of control), CellTiter-Blue; higher = more viable cells (about 100 = DMSO control); remark: listed apart in the source
Experimental: (§2)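 DSRT, CellTiter-Blue viability, 72 h incubation. Signal is normalised to DMSO and benzethonium chloride controls. Value is the normalised response at dose 3.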

CAL-51 [12] = experiment: as above; remark: listed apart in the source
Experimental: as §2

CAL-120 [13] = experiment: as above; remark: listed apart in the source
Experimental: as §2

Hs578T [14] = experiment: as above; remark: listed apart in the source
Experimental: as §2

MDA-MB-453 [15] = experiment: as above; remark: listed apart in the source
Experimental: as §2

MDA-MB-231 [16] = experiment: as above; remark: listed apart in the source
Experimental: as §2

HCC1599 [17] = experiment: as above; remark: listed apart in the source
Experimental: as §2

MFM-223 [18] = experiment: as above; remark: listed apart in the source
Experimental: as §2

MDA-MB-436 [19] = experiment: drug sensitivity score (DSS), CellTiter-Glo (DSS (AUC-based score)); higher = stronger drug effect (viability inhibition or cytotoxicity); extreme values may be limits of the assay
Method in brief: (§3)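 Normalisation on every plate relied on 0.1 % DMSO and a positive kill control. The plates, 384-well format, held compound at 5 concentrations 10-fold apart across a compound-specific 10,000-fold range, and breast cancer cell lines in 20 µl suspension were incubated on them for 72 h before CellTox Green and then CellTiter-Glo readings. The drug sensitivity score derives from the area under the fitted dose-response curve.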

BT-549 [20] = experiment: as above
Method in brief: as §3

MCF-10A = experiment: as above
Method in brief: as §3

MFM-223 [21] = experiment: as above
Method in brief: as §3

HCC1937 [22] = experiment: as above
Method in brief: as §3

Molecule `C/C(=C\c1csc(C)n1)[C@@H]1C[C@@H]2O[C@]2(C)CCC[C@H](C)[C@H](O)[C@@H](C)C(=O)C(C)(C)[C@@H](O)CC(=O)O1` [Patupilone] has a normalised viability (CAL-85-1; 0.3 nM) of 95.2%, a normalised viability (SK-BR-3; 1 nM) of 112% and a normalised viability (MDA-MB-436 [1]; 1 nM) of 86.8%. It also gave a normalised viability (CAL-51 [2]; 0.3 nM) of 106%, a normalised viability (HDQ-P1; 0.3 nM) of 107% and a normalised viability (CAL-120 [3]; 1 nM) of 109%. The normalised viability (Hs578T [4]; 1 nM) was 102%, the normalised viability (BT-549 [5]; 1 nM) was 106% and the normalised viability (CAL-148; 0.3 nM) was 96.3%. For the same molecule, the normalised viability (MDA-MB-453 [6]; 0.3 nM) was 114%, the normalised viability (BT-474; 1 nM) was 103% and the normalised viability (MDA-MB-231 [7]; 1 nM) was 59.6%. It also gave a normalised viability (HCC1599 [8]; 1 nM) of 108%, a normalised viability (DU-4475; 0.3 nM) of 90.2% and a normalised viability (MDA-MB-468; 1 nM) of 96%. For the same molecule, the normalised viability (MFM-223 [9]; 1 nM) was 105%, the normalised viability (HCC1937 [10]; 1 nM) was 79.4% and the normalised viability (HCC1143; 1 nM) was 91.6%. For the same molecule, the normalised viability (MDA-MB-436 [11]; 10 nM) was 66.2%, the normalised viability (CAL-51 [12]; 1 nM) was 104% and the normalised viability (CAL-120 [13]; 10 nM) was 51.6%. The normalised viability (Hs578T [14]; 10 nM) was 36.7%, the normalised viability (MDA-MB-453 [15]; 1 nM) was 88.7% and the normalised viability (MDA-MB-231 [16]; 10 nM) was 22.7%. For the same molecule, the normalised viability (HCC1599 [17]; 10 nM) was 111%, the normalised viability (MFM-223 [18]; 10 nM) was 81.3% and the drug sensitivity score (MDA-MB-436 [19]) was 15. For the same molecule, the drug sensitivity score (BT-549 [20]) was 20.5, the drug sensitivity score (MCF-10A) was 8.33 and the drug sensitivity score (MFM-223 [21]) was 3.26. It also gave a drug sensitivity score (HCC1937 [22]) of 0.309.
Work on `CCCCCCCCc1ccc(CCC(N)(CO)CO)cc1` [Fingolimod] yielded a normalised viability (CAL-85-1; 3 nM) of 92.2%, a normalised viability (SK-BR-3; 10 nM) of 106% and a normalised viability (MDA-MB-436 [1]; 10 nM) of 100%. The normalised viability (CAL-51 [2]; 3 nM) was 119%, the normalised viability (HDQ-P1; 3 nM) was 116% and the normalised viability (CAL-120 [3]; 10 nM) was 91%. It also gave a normalised viability (Hs578T [4]; 10 nM) of 98.1%, a normalised viability (BT-549 [5]; 10 nM) of 94% and a normalised viability (CAL-148; 3 nM) of 85.7%. For the same molecule, the normalised viability (MDA-MB-453 [6]; 3 nM) was 114%, the normalised viability (BT-474; 10 nM) was 121% and the normalised viability (MDA-MB-231 [7]; 10 nM) was 94.8%. The normalised viability (HCC1599 [8]; 10 nM) was 88.3%, the normalised viability (DU-4475; 3 nM) was 103% and the normalised viability (MDA-MB-468; 10 nM) was 106%. The normalised viability (MFM-223 [9]; 10 nM) was 92.5%, the normalised viability (HCC1937 [10]; 10 nM) was 116% and the normalised viability (HCC1143; 10 nM) was 80.8%. For the same molecule, the normalised viability (MDA-MB-436 [11]; 100 nM) was 101%, the normalised viability (CAL-51 [12]; 10 nM) was 117% and the normalised viability (CAL-120 [13]; 100 nM) was 90.7%. For the same molecule, the normalised viability (Hs578T [14]; 100 nM) was 97.1%, the normalised viability (MDA-MB-453 [15]; 10 nM) was 108% and the normalised viability (MDA-MB-231 [16]; 100 nM) was 89.3%. The normalised viability (HCC1599 [17]; 100 nM) was 93.9%, the normalised viability (MFM-223 [18]; 100 nM) was 98.6% and the drug sensitivity score (MDA-MB-436 [19]) was 3.56. For the same molecule, the drug sensitivity score (BT-549 [20]) was 3.92, the drug sensitivity score (MCF-10A) was 5.32 and the drug sensitivity score (MFM-223 [21]) was 1.45. The drug sensitivity score (HCC1937 [22]) was 4.54.
`O=C(O)CCCc1ccc(N(CCCl)CCCl)cc1` [Chlorambucil] was tested, and the normalised viability (CAL-85-1; 3 nM) was 101%, the normalised viability (SK-BR-3; 10 nM) was 113% and the normalised viability (MDA-MB-436 [1]; 10 nM) was 89.7%. The normalised viability (CAL-51 [2]; 3 nM) was 115%, the normalised viability (HDQ-P1; 3 nM) was 114% and the normalised viability (CAL-120 [3]; 10 nM) was 104%. It also gave a normalised viability (Hs578T [4]; 10 nM) of 111%, a normalised viability (BT-549 [5]; 10 nM) of 80.9% and a normalised viability (CAL-148; 3 nM) of 98%. The normalised viability (MDA-MB-453 [6]; 3 nM) was 131%, the normalised viability (BT-474; 10 nM) was 120% and the normalised viability (MDA-MB-231 [7]; 10 nM) was 101%. The normalised viability (HCC1599 [8]; 10 nM) was 108%, the normalised viability (DU-4475; 3 nM) was 101% and the normalised viability (MDA-MB-468; 10 nM) was 107%. It also gave a normalised viability (MFM-223 [9]; 10 nM) of 95.5%, a normalised viability (HCC1937 [10]; 10 nM) of 51.5% and a normalised viability (HCC1143; 10 nM) of 83.5%. The normalised viability (MDA-MB-436 [11]; 100 nM) was 95.8%, the normalised viability (CAL-51 [12]; 10 nM) was 107% and the normalised viability (CAL-120 [13]; 100 nM) was 109%. For the same molecule, the normalised viability (Hs578T [14]; 100 nM) was 106%, the normalised viability (MDA-MB-453 [15]; 10 nM) was 106% and the normalised viability (MDA-MB-231 [16]; 100 nM) was 103%. It also gave a normalised viability (HCC1599 [17]; 100 nM) of 132%, a normalised viability (MFM-223 [18]; 100 nM) of 95.5% and a drug sensitivity score (MDA-MB-436 [19]) of 0. For the same molecule, the drug sensitivity score (BT-549 [20]) was 0, the drug sensitivity score (MCF-10A) was 0 and the drug sensitivity score (MFM-223 [21]) was 0. The drug sensitivity score (HCC1937 [22]) was 0.
In the case of `CN(C)CCN1C(=O)c2cccc3cc(N)cc(c23)C1=O` [Amonafide], the normalised viability (CAL-85-1; 3 nM) is reported as 91.6%, the normalised viability (SK-BR-3; 10 nM) is reported as 99.9% and the normalised viability (MDA-MB-436 [1]; 10 nM) is reported as 111%. For the same molecule, the normalised viability (CAL-51 [2]; 3 nM) was 112%, the normalised viability (HDQ-P1; 3 nM) was 98.5% and the normalised viability (CAL-120 [3]; 10 nM) was 82%. It also gave a normalised viability (Hs578T [4]; 10 nM) of 113%, a normalised viability (BT-549 [5]; 10 nM) of 84.9% and a normalised viability (CAL-148; 3 nM) of 88.8%. For the same molecule, the normalised viability (MDA-MB-453 [6]; 3 nM) was 106%, the normalised viability (BT-474; 10 nM) was 114% and the normalised viability (MDA-MB-231 [7]; 10 nM) was 97.2%. The normalised viability (HCC1599 [8]; 10 nM) was 98.2%, the normalised viability (DU-4475; 3 nM) was 100% and the normalised viability (MDA-MB-468; 10 nM) was 105%. For the same molecule, the normalised viability (MFM-223 [9]; 10 nM) was 92.1%, the normalised viability (HCC1937 [10]; 10 nM) was 91.8% and the normalised viability (HCC1143; 10 nM) was 83.6%. It also gave a normalised viability (MDA-MB-436 [11]; 100 nM) of 104%, a normalised viability (CAL-51 [12]; 10 nM) of 111% and a normalised viability (CAL-120 [13]; 100 nM) of 95.4%. It also gave a normalised viability (Hs578T [14]; 100 nM) of 84.8%, a normalised viability (MDA-MB-453 [15]; 10 nM) of 94.1% and a normalised viability (MDA-MB-231 [16]; 100 nM) of 88%. It also gave a normalised viability (HCC1599 [17]; 100 nM) of 102%, a normalised viability (MFM-223 [18]; 100 nM) of 87.5% and a drug sensitivity score (MDA-MB-436 [19]) of 2.32. The drug sensitivity score (BT-549 [20]) was 2.93, the drug sensitivity score (MCF-10A) was 2.36 and the drug sensitivity score (MFM-223 [21]) was 0.47. For the same molecule, the drug sensitivity score (HCC1937 [22]) was 2.35.
